Data as given in ChEMBL document CHEMBL1129910, “Synthesis of an aminopropyl analog of the experimental anticancer drug tallimustine, and activation of its 4-nitrobenzylcarbamoyl prodrug by nitroreductase and NADH” (Bioorg Med Chem Lett, 1997).

Legend:
Type in all cases: functional, cell-based
[1] = Cytotoxicity against the growth of LS174T human colon cancer cells was determined using sulforhodamine B assay in the presence of Nitroreductase+NADH
[2] = Cytotoxicity against the growth of LS174T human colon cancer cells was determined using sulforhodamine B assay
[3] = Cytotoxicity against the growth of […] human colon cancer cells was determined using sulforhodamine B assay; conditions: Cancer cell lines
[4] = Cytotoxicity against the growth of […] human colon cancer cells was determined using sulforhodamine B assay in the presence of Nitroreductase+NADH; conditions: Cancer cell lines

Row | Compound | IC50 [1] [µM] | IC50 [2] [µM] | IC50 [3] [µM] | IC50 [4] [µM]
1 | Cn1cc(NC(=O)c2cc(NC(=O)c3cc(NC(=O)c4ccc(N(CCCl)CCCl)cc4)cn3C)cn2C)cc1C(=O)NCCCNC(=O)OCc1ccc([N+](=O)[O-])cc1 | 0.02 | 2.3 | 22.9 | 9.4
2 | Cn1cc(NC(=O)c2cc(NC(=O)c3cc(NC(=O)c4ccc(N(CCCl)CCCl)cc4)cn3C)cn2C)cc1C(=O)NCCCN |  | 0.02 | 10 | 
